Results taken from publication PMC11855827, “High-Throughput Screening of Five Compound Libraries for Anthelmintic Activity and Toxicity Leads to the Discovery of Two Flavonoid Compounds” (International Journal of Molecular Sciences, 2025).
Where a name gives a salt, the structure may show the parent alone. Read-outs that look alike come from different tables or passages of the source.

Tested on: C. elegans
Experiment: microbe, parasite or virus in culture
Details: Caenorhabditis elegans
[1] = 0 h, read-out: Percentage of motility inhibition 0 h, Table S2, C. elegans SS assay, 110 μM, 0 h, averages of 4 data points
[2] = 24 h, read-out: Percentage of motility inhibition 24 h, Table S2, C. elegans SS assay, 110 μM, 24 h, averages of 4 data points
[3] = 0 h, read-out: Percentage of motility inhibition 0 h
[4] = 24 h, read-out: Percentage of motility inhibition 24 h

CC(C)=CCC[C@](C)(O[C@@H]1O[C@H](CO)[C@@H](O)[C@H](O)[C@H]1O)[C@H]1CC[C@]2(C)[C@@H]1[C@H](O)C[C@@H]1[C@@]3(C)CC[C@H](O[C@@H]4O[C@H](CO)[C@@H](O)[C@H](O)[C@H]4O)C(C)(C)[C@@H]3CC[C@]12C [Ginsenoside F2]
inhibition at 110 µM [1]: 0% | inhibition at 110 µM [2]: 45%

CC1(C)CC[C@]2(C(=O)O)CC[C@]3(C)C(=CC[C@@H]4[C@@]5(C)C[C@@H](O)[C@H](O)[C@@](C)(CO)[C@@H]5[C@H](O)C[C@]43C)[C@@H]2C1 [Terminolic acid]
inhibition at 110 µM [1]: 26% | inhibition at 110 µM [2]: 10%

CC(C)(C)C(=O)C(Oc1ccc(Cl)cc1)n1ccnc1 (stereo not shown) [Climbazole]
inhibition at 110 µM [1]: 53% | inhibition at 110 µM [2]: 2%

COc1ccc(-c2oc3cc(O)cc(O)c3c(=O)c2O)cc1 [Kaempferide]
inhibition at 110 µM [1]: 49% | inhibition at 110 µM [2]: 0%

Cc1cc(/C=C/C#N)cc(C)c1Nc1ccnc(Nc2ccc(C#N)cc2)n1 [Rilpivirine]
inhibition at 110 µM [1]: 32% | inhibition at 110 µM [2]: 20%

C=C(C)[C@@H]1CC[C@]2(C(=O)O)CC[C@]3(C)[C@H](CC[C@@H]4[C@@]5(C)CC[C@@H](O)C(C)(C)[C@@H]5CC[C@]43C)[C@@H]12 [Epibetulinic acid]
inhibition at 110 µM [1]: 14% | inhibition at 110 µM [2]: 17%

c1ccc2c(Cc3c[nH]c4ccccc34)c[nH]c2c1 [3,3'‐Diindolylmethane]
inhibition at 110 µM [1]: 0% | inhibition at 110 µM [2]: 7%

CN1CCc2cc3c(cc2C1O)OCO3 (stereo not shown) [Hydrastinine]
inhibition at 110 µM [1]: 1% | inhibition at 110 µM [2]: 4%

C=C[C@@]1(C)Cc2occ(C)c2[C@@H]2OC(=O)C(=C)[C@@H]21 [Isolinderalactone]
inhibition at 110 µM [1]: 13% | inhibition at 110 µM [2]: 9%

C[C@H]1C(=O)O[C@@H]2CC[N+]3([O-])CC=C(COC(=O)[C@](C)(O)[C@]1(C)O)[C@H]23 (stereo partly shown) [Monocrotaline N‐Oxide]
inhibition at 110 µM [1]: 0% | inhibition at 110 µM [2]: 0%

OCc1ccccc1 [Benzyl alcohol]
inhibition at 110 µM [1]: 2% | inhibition at 110 µM [2]: 4%

CC1(C)CC[C@]2(C(=O)O)CC[C@]3(C)C(=CC[C@@H]4[C@@]5(C)CC[C@H](O)[C@@](C)(C=O)[C@@H]5CC[C@]43C)[C@@H]2C1 [Gypsogenin]
inhibition at 110 µM [1]: 10% | inhibition at 110 µM [2]: 10%

O=C(O)c1cccnc1C(=O)O [Quinolinic acid]
inhibition at 110 µM [1]: 0% | inhibition at 110 µM [2]: 0%

COc1c(O)cc2oc(-c3ccc(O)cc3)cc(=O)c2c1O [Hispidulin]
inhibition at 110 µM [3]: 0% | inhibition at 110 µM [4]: 33%

COc1cc(O)c2c(=O)cc(-c3ccc(O)cc3)oc2c1 [Genkwanin]
inhibition at 110 µM [1]: 34% | inhibition at 110 µM [2]: 4%

COC(=O)N[C@H](C(=O)N1CCC[C@H]1c1nc(-c2ccc(-c3ccc(-c4c[nH]c([C@@H]5CCCN5C(=O)[C@@H](NC(=O)OC)C(C)C)n4)cc3)cc2)c[nH]1)C(C)C [Daclatasvir]
inhibition at 110 µM [1]: 44% | inhibition at 110 µM [2]: 43%

C=C[C@](C)(O)CC[C@@H]1[C@@]2(C)CCCC(C)(C)[C@@H]2CC[C@@]1(C)O [Sclareol]
inhibition at 110 µM [1]: 28% | inhibition at 110 µM [2]: 10%

Cc1cc(C)nc(NS(=O)(=O)c2ccc(N)cc2)n1 [Sulfamethazine]
inhibition at 110 µM [1]: 5% | inhibition at 110 µM [2]: 3%

CC1(C)CC[C@]2(C(=O)O)CC[C@]3(C)C(=CC[C@@H]4[C@@]5(C)C[C@@H](O)[C@H](O)[C@@](C)(CO)[C@@H]5CC[C@]43C)[C@@H]2[C@@H]1O [Arjungenin]
inhibition at 110 µM [1]: 0% | inhibition at 110 µM [2]: 36%

COc1ccc2cc1Oc1ccc(cc1)C[C@H]1c3cc(c(OC)cc3CCN1C)Oc1c(O)c(OC)cc3c1[C@H](C2)N(C)CC3 [Fangchinoline]
inhibition at 110 µM [1]: 0% | inhibition at 110 µM [2]: 0%

C[C@@H]1CC[C@]2(C(=O)O)CC[C@]3(C)C(=CC[C@@H]4[C@@]5(C)CC[C@H](O)C(C)(C)[C@@H]5CC[C@]43C)[C@@H]2[C@]1(C)O [Pomolic acid]
inhibition at 110 µM [1]: 29% | inhibition at 110 µM [2]: 67%

O=C(C1CCCCC1)N1CC(=O)N2CCc3ccccc3C2C1 (stereo not shown) [Praziquantel]
inhibition at 110 µM [1]: 27% | inhibition at 110 µM [2]: 0%

COP(=S)(OC)Oc1c(Cl)cc(C)cc1Cl [Tolclofos‐methyl]
inhibition at 110 µM [1]: 35% | inhibition at 110 µM [2]: 20%

OC[C@@H](O)[C@@H](O)[C@H](O)[C@H](O)CO [D-Mannitol]
inhibition at 110 µM [1]: 11% | inhibition at 110 µM [2]: 0%

COc1ccc([C@@H]2CC(=O)c3c(O)cc(O[C@@H]4O[C@H](CO)[C@@H](O)[C@H](O)[C@H]4O[C@@H]4O[C@@H](C)[C@H](O)[C@@H](O)[C@H]4O)cc3O2)cc1 [Poncirin]
inhibition at 110 µM [1]: 13% | inhibition at 110 µM [2]: 3%

CN(C/C=C/C#CC(C)(C)C)Cc1cccc2ccccc12 [Terbinafine]
inhibition at 110 µM [1]: 31% | inhibition at 110 µM [2]: 0%

O=c1c(-c2ccc(O)cc2)coc2cc(O[C@@H]3O[C@H](CO)[C@@H](O)[C@H](O)[C@H]3O)cc(O)c12 [Genistin]
inhibition at 110 µM [1]: 29% | inhibition at 110 µM [2]: 19%

O=C(O)c1cccc2nc3ccccc3nc12 [Phenazine‐1‐carboxylic acid]
inhibition at 110 µM [1]: 0% | inhibition at 110 µM [2]: 11%

C=C[C@]1(C)C[C@@H](OC(=O)CS[C@@H]2C[C@H]3CC[C@@H](C2)N3C)[C@]2(C)[C@H](C)CC[C@]3(CCC(=O)[C@H]32)[C@@H](C)[C@@H]1O [Retapamulin]
inhibition at 110 µM [1]: 27% | inhibition at 110 µM [2]: 9%

COc1cc([C@@H]2c3cc4c(cc3[C@@H](O[C@@H]3O[C@@H]5CO[C@@H](C)O[C@H]5[C@H](O)[C@H]3O)[C@H]3COC(=O)[C@H]23)OCO4)cc(OC)c1O [Etoposide]
inhibition at 110 µM [1]: 0% | inhibition at 110 µM [2]: 4%

C[C@@H](c1ncncc1F)[C@](O)(Cn1cncn1)c1ccc(F)cc1F [Voriconazole]
inhibition at 110 µM [1]: 19% | inhibition at 110 µM [2]: 0%

C/C=C(\C)C(=O)O[C@H]1[C@H](O)[C@]2(COC(C)=O)[C@H](O)C[C@]3(C)C(=CC[C@@H]4[C@@]5(C)CC[C@H](O[C@@H]6O[C@H](C(=O)O)[C@@H](O[C@@H]7O[C@H](CO)[C@@H](O)[C@H](O)[C@H]7O)[C@H](O)[C@H]6O[C@@H]6O[C@H](CO)[C@@H](O)[C@H](O)[C@H]6O)[C@](C)(CO)[C@@H]5CC[C@]43C)[C@@H]2CC1(C)C [Isoescin IA]
inhibition at 110 µM [1]: 8% | inhibition at 110 µM [2]: 1%

C[C@]1(OC(=O)/C=C/c2ccccc2)C[C@@H](O)[C@]2(O)C=CO[C@@H](O[C@@H]3O[C@H](CO)[C@@H](O)[C@H](O)[C@H]3O)[C@@H]21 [Harpagoside]
inhibition at 110 µM [1]: 9% | inhibition at 110 µM [2]: 30%

O=c1cc[nH]c(=O)[nH]1 [Uracil]
inhibition at 110 µM [1]: 0% | inhibition at 110 µM [2]: 0%

CCCCC(O)(Cn1cncn1)c1ccc(Cl)cc1Cl (stereo not shown) [Hexaconazole]
inhibition at 110 µM [1]: 14% | inhibition at 110 µM [2]: 22%

CN1C(=O)C(O)CC1c1cccnc1 (stereo not shown) [Hydroxycotinine]
inhibition at 110 µM [1]: 13% | inhibition at 110 µM [2]: 0%

C=C1C(=O)[C@]23C[C@H]1C[C@@H](O)[C@H]2[C@@]12CO[C@@H](O)[C@@H]1C(C)(C)CC[C@@H]2OC3=O [Nodosin]
inhibition at 110 µM [1]: 0% | inhibition at 110 µM [2]: 14%

CCOC(=O)C1=C[C@]2(CC)CCCN3CCc4c(n1c1ccccc41)[C@@H]32 [Vinpocetine]
inhibition at 110 µM [1]: 0%

COc1ccc2c(O[C@@H]3C[C@H]4C(=O)N[C@]5(C(=O)NS(=O)(=O)C6CC6)C[C@H]5/C=C\CCCCN(C)C(=O)[C@@H]4C3)cc(-c3nc(C(C)C)cs3)nc2c1C [Simeprevir]
inhibition at 110 µM [1]: 2% | inhibition at 110 µM [2]: 25%

O=C1C[C@@H](c2ccc(O[C@@H]3O[C@H](CO)[C@@H](O)[C@H](O)[C@H]3O)cc2)Oc2cc(O)ccc21 [Liquiriti n]
inhibition at 110 µM [1]: 45% | inhibition at 110 µM [2]: 14%

CC(=O)C1C(=O)C=C(C)OC1=O (stereo not shown) [Dehydroacetic acid]
inhibition at 110 µM [1]: 45% | inhibition at 110 µM [2]: 17%

O=c1c2ccccc2nc2n1CCc1c-2[nH]c2ccccc12 [Rutaecarpine]
inhibition at 110 µM [1]: 0% | inhibition at 110 µM [2]: 24%

COc1c(-c2ccc(O)c(O)c2)oc2cc(O)cc(O)c2c1=O [3‐O‐Methylquercetin]
inhibition at 110 µM [1]: 3% | inhibition at 110 µM [2]: 16%

CN(CC(=O)O)C(=N)N [Creatine]
inhibition at 110 µM [1]: 4% | inhibition at 110 µM [2]: 9%

O=c1c(O)c(-c2ccc(O)cc2)oc2cc(O)cc(O)c12 [Kaempferol]
inhibition at 110 µM [1]: 0% | inhibition at 110 µM [2]: 25%

C[C@@H]1O[C@@H](OC[C@H]2O[C@@H](Oc3c(-c4ccc(O)c(O)c4)oc4cc(O)cc(O)c4c3=O)[C@H](O)[C@@H](O)[C@@H]2O)[C@H](O)[C@H](O)[C@H]1O [Rutin]
inhibition at 110 µM [1]: 4% | inhibition at 110 µM [2]: 0%

CC(=O)NS(=O)(=O)c1ccc(NC(=O)c2ccccc2C(=O)O)cc1 [Phthalylsulfacetamide]
inhibition at 110 µM [1]: 32% | inhibition at 110 µM [2]: 2%

COc1c2ccoc2nc2c(O)cccc12 [Robustine]
inhibition at 110 µM [1]: 16% | inhibition at 110 µM [2]: 7%

Cc1cccc(N(C)C(=S)Oc2ccc3ccccc3c2)c1 [Tolnaftate]
inhibition at 110 µM [1]: 25% | inhibition at 110 µM [2]: 26%

COC(=O)/C=C/C(=O)O [Monomethyl fumarate]
inhibition at 110 µM [1]: 0% | inhibition at 110 µM [2]: 15%

Cc1cc(NS(=O)(=O)c2ccc(N)cc2)no1 [Sulfamethoxazole]
inhibition at 110 µM [1]: 30% | inhibition at 110 µM [2]: 11%

C=C1CCC[C@]2(C)C[C@]3(O)OC(=O)C(C)=C3C[C@@H]12 [Atractylenolide III]
inhibition at 110 µM [1]: 3% | inhibition at 110 µM [2]: 6%

COc1cccc(N2CCN(C3=Nc4c(F)cccc4[C@H](CC(=O)O)N3c3cc(C(F)(F)F)ccc3OC)CC2)c1 [Letermovir]
inhibition at 110 µM [1]: 24% | inhibition at 110 µM [2]: 0%

CC(C)CN(C[C@@H](O)[C@H](Cc1ccccc1)NC(=O)O[C@H]1CCOC1)S(=O)(=O)c1ccc(N)cc1 [Amprenavir]
inhibition at 110 µM [1]: 41% | inhibition at 110 µM [2]: 34%

Oc1cc(O)c2c(c1)O[C@@H](c1cc(O)c(O)c(O)c1)[C@H](O)C2 [(‐)‐Gallocatechin]
inhibition at 110 µM [3]: 43% | inhibition at 110 µM [4]: 5%
